Measurements: US6723702B2, “Use of relaxin treat diseases related to vasoconstriction” (RAS Medical, Inc., priority 2000, dated 2004)

Legend:
intact, female rats = experiment: Chronic infusion of purified porcine RLX or rhRLX: MAP and renal function in conscious rats; assay type: in vivo, rat; conditions: chronic infusion 4 μg/hour
Description: Long-Evans female rats aged 10-14 weeks were purchased from Harlan Sprague-Dawley (Frederick, Md.). They were fed PROLAB RMH 2000 diet containing 0.48% sodium (PME Feeds Inc., St. Louis, Mo.) and provided water ad libitum. To prepare the rats for experimental procedures, they were trained for several hours in a Plexiglas restraining cage (Braintree Scientific Co., Braintree, Mass.) on at least five different occasions before surgical intervention. These cages afforded sufficient space for grooming of the face and front paws while preventing the rat from turning around. Thus, accurate timed-urine collections and blood samplings were made possible from the chronically implanted bladder and vascular catheters, respectively. Rats failing to habituate to the cage were eliminated from the study (<1%). All animal procedures were approved by the Institutional Animal Care and Use Committee of the Magee-Womens Research Institute.
The details of the surgical procedures have been previously described. See, e.g., Conrad (1984) Kidney Int. 26:24-29; and Danielson and Conrad (1995) J. Clin. Invest. 96:482-490. […] The bladder catheter, a silastic-covered stainless steel cannula, was sewn into the urinary bladder with a purse-string suture and exteriorized through the ventral abdominal wall. This catheter was then plugged allowing the animal to urinate through the urethra while in her home cage. In the ovariectomized and sham ovariectomized animals, the ovaries were first ligated and then excised, or briefly manipulated, respectively, via a small incision made in the lateral abdominal wall immediately after the insertion of vascular and bladder catheters. All surgeries were conducted using aseptic technique. At least a 7-day recovery period was allowed before experimentation.
For chronic infusion of relaxin, an osmotic minipump was inserted subcutaneously (s.c.) in the back of the animal under ether anesthesia. After shaving and cleaning the skin with alcohol and betadine, a small incision was made and the minipump containing either recombinant human relaxin (rhRLX), purified porcine relaxin (RLX), or vehicle was inserted. Then the incision was closed with surgical staples. The model 2001 and 2ML1 osmotic minipumps (Alza Co., Palo Alto, Calif.) were used for the purified porcine RLX and rhRLX, respectively.
At the beginning of each experiment, immediately after opening the arterial catheter and before infusion of fluids, 100 μl of blood was collected into a heparinized tube. […] The hematocrit was also routinely determined on these midpoint blood samples. […] MAP, GFR, ERPF, and ERVR were assessed on days 2 and 5 of the infusion, and 5-12 days after depletion of the 7-day minipump. […] Circulating relaxin concentrations of 20-40 ng/mL have been measured in rats of 12-14 gestational days. […]

[1] = system: Rat aortic adventitial fibroblasts; experiment: Collagen and fibronectin expression by adventitial fibroblasts; assay type: cell-based; conditions: rhRlx 10 ng/ml
Procedure: Aortic adventitial fibroblasts from normal adult Sprague/Dawley rats were explanted by carefully dissecting the adventitia away from the media and culturing 1 mm^3 pieces in Dulbecco's modified Eagles Medium (DMEM), plus 10% bovine fetal calf serum. When cultures were confluent, fibroblasts were dispersed with trypsin and passaged once prior to use in experiments. Fibroblasts were seeded at 10^5 cells/cm^2 in DMEM+10% FBS in 48-well plates for experiments and assayed for collagen and fibronectin expression, as previously described (Unemori et al. (1996) J. Clin. Invest. 98:2739-2745). […] Half of the cultures were also treated simultaneously with 10 ng/ml of rhRlx. Proteins were biosynthetically labeled with ^3H-proline (25 μCi/ml) (Amersham Corp., Arlington Heights, Ill.), in the presence of ascorbate (50 μg/ml) and β-aminopropionitrile (80 μg/ml), and conditioned media collected 24 hours later. Media were electrophoresed on SDS-PAGE, and the density of collagen and fibronectin bands was determined by densitometric scanning using a digital imaging system (Alpha Innotech Corp, San Leandro, Calif.).

[2] = system: human primary umbilical vein, aortic, foreskin, and pulmonary endothelial cells; experiment: 3H-thymidine uptake, human endothelial cells; assay type: cell-based; conditions: serum-free medium
Procedure: Endothelial cells were derived from explant cultures of human neonatal foreskin and rat aorta. Primary human endothelial cells from umbilical vein, aorta, and lung were purchased from Clonetics-BioWhittaker Corporation (San Diego, Calif.) and cultured according to vendor instructions. ^3H-thymidine uptake was performed, as previously described, in serum-free medium. Unemori et al. (1994) Exp. Cell Res. 21:166-171.
Relaxin was then assayed for the ability to induce proliferation of endothelial cells directly. Relaxin's potential mitogenic effect was tested on human primary umbilical vein, aortic, foreskin, and pulmonary endothelial cells, as well as rat aortic endothelial cells. […] Alterations in other aspects of endothelial cell phenotype that are believed to correlate with angiogenesis were also tested. Relaxin had no effect on collagen expression, judged by SDS-PAGE of ^3H-proline-labeled cellular proteins; or metalloproteinase or tissue inhibitor of metalloproteinase-1 secretion, assessed by gelatin zymography. […] Therefore, relaxin had no apparent effect directly on endothelial cells.

human cardiac cells = experiment: VEGF protein secreted by human cardiac cells; assay type: cell-based; conditions: 100 ng/ml, 24 hr
Procedure: Consistent with RT-PCR data, relaxin stimulated a small but significant dose-related increase in levels of VEGF protein secreted by human cardiac. Cells were seeded in 35 mm wells at 2.5×10^5 cells per well 24 hours prior to treatment with relaxin. Cells were washed twice with SmBM (no supplements) and incubated for 2 hr with SmBM treatment medium (containing 400 pg/ml bFGF, gentamycin, amphoteracin B, and 2% fetal calf serum) at 37° C., 5% CO2. The medium was then replaced with SmBM treatment medium without relaxin or with concentrations of relaxin from 0.1 ng/ml to 100 ng/ml. Cells were then incubated for 24 hr (37° C., 5% CO2).

[3] = system: Alveolar macrophages or spleen cells; experiment: VEGF expression by RT-PCR in non-wound macrophages and immune cells; assay type: in vivo, rat; conditions: following relaxin treatment
Description: Resident macrophages and immune cells from other non-wound sources were also harvested from vehicle- and relaxin-treated rats, and assayed for VEGF expression by RT-PCR.

endothelial cells = experiment: Binding of 32P-labelled relaxin to endothelial cells
[4] = days 2 and 5, rhRLX significant only at day 5

| Substance | effect on MAP (intact, female rats; days 2 and 5 (FIG. 1A)) | effect on ERPF (intact, female rats; [4]) | effect on ERVR (intact, female rats; [4]) | effect on GFR (intact, female rats; [4]) | decrease of TGF-β-induced fibronectin over-expression [1] [%] | inhibition of TGF-β-induced collagen over-expression [1] [%] | 3H-thymidine uptake [2] | VEGF secretion, maximum induction over control levels (human cardiac cells) [%] | VEGF expression [3] | binding of 32P-labelled relaxin to endothelial cells (endothelial cells) |
| --- | --- | --- | --- | --- | --- | --- | --- | --- | --- | --- |
| Porcine RLX: lyophilized, purified porcine relaxin (Sherwood and O'Byrne 1974), dissolved in Ringer's solution | did not significantly change | marked increase | reciprocal reduction | marked increase | – | – | – | – | – | – |
| rhRLX: recombinant human relaxin, identical in amino acid sequence to the product of the human H2 gene; A chain of 24, B chain of 29 amino acids | – | – | – | – | 28±6 | 21±5 | did not alter | 155 | did not show an upregulation | could not be detected |
